Results: US20240180929A1, “TREATMENT OF INFECTIOUS DISEASES USING BCL-2 FAMILY PROTEIN INHIBITORS” (TEXAS BIOMEDICAL RESEARCH INSTITUTE, priority 2020, published 2024)

What was measured:
[1] = test system: M.tb; assay: CFU assay, M.tb-infected murine lung macrophages; format: cell-based, Mycobacterium tuberculosis; conditions: 30 μM pan inhibitor, 2 days of treatment, MOI 1
[2] = test system: M.tb; assay: CFU assay, M.tb-infected murine BMDMs; format: cell-based, Mycobacterium tuberculosis; conditions: 30 μM pan inhibitor, 4 days of treatment, MOI 1
[3] = test system: M.tb; format: in vivo, BALB/c mice; conditions: isoniazid positive control, vs placebo
[4] = test system: M.tb; assay: CFU assay, M.tb-infected human in vitro TB granulomas; format: cell-based, Mycobacterium tuberculosis; conditions: 30 μM sabutoclax, 7 days
[5] = test system: M.tb-lux; format: cell-based, Mycobacterium tuberculosis

Structure (SMILES): CC(C)c1ccccc1Cc1cc(C(=O)Nc2ccc(S(=O)(=O)c3ccccc3C(C)(C)C)cc2)c(O)c(O)c1O [TW37]
- number of M.tb CFUs in lung macrophages [1]: reduction in the number of M.tb CFUs
- M.tb CFUs normalized to DMSO control in BMDMs [2]: reduction in the number of M.tb CFUs

Structure (SMILES): NNC(=O)c1ccncc1 [isoniazid]
- M.tb growth in murine lungs (CFU) [3]: significantly reduced M.tb growth in murine lungs
- M.tb growth in murine spleen (CFU) [3]: significantly reduced M.tb growth
- acid fast stained M.tb in the mouse lung [3]: reduction in bacteria
- lung inflammation (hematoxylin and eosin stain) [3]: reduced inflammation

Structure (SMILES): Cc1cc2c(C(=O)NC[C@H](C)c3ccccc3)c(O)c(O)cc2c(O)c1-c1c(C)cc2c(C(=O)NC[C@H](C)c3ccccc3)c(O)c(O)cc2c1O [sabutoclax]
- number of M.tb CFUs in lung macrophages [1]: reduction in the number of M.tb CFUs
- M.tb growth in human granulomas (CFU) [4]: significant reduction in M.tb growth
- M.tb CFUs normalized to DMSO control in BMDMs [2]: reduction in the number of M.tb CFUs

Structure (SMILES): Cc1c(-c2c(-c3ccc(F)o3)sc3ncnc(O[C@H](Cc4ccccc4OCc4ccnn4CC(F)(F)F)C(=O)O)c23)ccc(OCCN2CCN(C)CC2)c1Cl [S63845]
- M.tb growth in human MDMs (luciferase) [5]: reduced M.tb growth in donor 1 after 4 days, but to a limited extent relative to the pan inhibitor Sabutoclax
